Laboratory results reported in patent US20160242416A1, “FUNGICIDAL ISOXAZOLINE CARBINOLS” (E I DU PONT DE NEMOURS AND COMPANY, priority 2015, published 2016).

Assays:
[1] = tested on: Erysiphe graminis f sp. tritici; assay: Test G: wheat powdery mildew, preventive spray on wheat seedlings; conditions: wheat powdery mildew, 100 = 100% disease control, 0 = no control
[2] = tested on: Puccinia recondita f sp. tritici; assay: Test F: wheat leaf rust, preventive spray on wheat seedlings; conditions: wheat leaf rust, 100 = 100% disease control, 0 = no control
Excerpt: (§1) General protocol for preparing test solutions for Tests A-G: the test compounds were first dissolved in acetone in an amount equal to 3% of the final volume and then suspended at the desired concentration (in ppm) in acetone and purified water (50/50 mix by volume) containing 250 ppm of the surfactant PEG400 (polyhydric alcohol esters). The resulting test suspensions were then used in Tests A-G. Compounds were sprayed at a concentration of 50 ppm (*) or 10 ppm to the point of run-off on the test plants, the equivalent of a rate of 200 g/ha or 40 g/ha, respectively.
The test solution was sprayed to the point of run-off on wheat seedlings. The following day the seedlings were inoculated with a spore suspension of Puccinia recondita f sp. tritici; (the causal agent of wheat leaf rust) and incubated in a saturated atmosphere at 20° C. for 24 h, and then moved to a growth chamber at 20° C. for 6 days, after which time visual disease ratings were made.
A dash (-) indicates no test results. Compounds with an asterisks (*) were applied at a concentration of 50 ppm, otherwise test solutions were applied at 10 ppm.

Zymoseptoria tritici = assay: Test E: wheat leaf blotch, preventive spray on wheat seedlings; conditions: wheat leaf blotch, 100 = 100% disease control, 0 = no control
Excerpt: as §1
The test solution was sprayed to the point of run-off on wheat seedlings. The following day the seedlings were inoculated with a spore suspension of Zymoseptoria tritici (the causal agent of wheat leaf blotch) and incubated in a saturated atmosphere at 24° C. for 48 h, and then moved to a growth chamber at 20° C. for 17 days, after which time visual disease ratings were made.
Compounds with an asterisks (*) were applied at a concentration of 50 ppm, otherwise test solutions were applied at 10 ppm.

Stagonospora nodorum = assay: Test D: wheat glume blotch, preventive spray on wheat seedlings; conditions: wheat glume blotch, 100 = 100% disease control, 0 = no control
Botrytis cinerea = assay: Test B: gray mold, preventive spray on tomato seedlings; conditions: gray mold on tomato, 100 = 100% disease control, 0 = no control

| SMILES | Test G rating (% disease control) ([1]; 10 ppm) | Test F rating (% disease control) ([2]; 10 ppm) | Test E rating (% disease control) (Zymoseptoria tritici; 10 ppm) | Test D rating (% disease control) (Stagonospora nodorum; 10 ppm) | Test B rating (% disease control) (Botrytis cinerea; 10 ppm) | Test G rating (% disease control) ([1]; 50 ppm (asterisk)) | Test F rating (% disease control) ([2]; 50 ppm (asterisk)) | Test E rating (% disease control) (Zymoseptoria tritici; 50 ppm (asterisk)) | Test D rating (% disease control) (Stagonospora nodorum; 50 ppm (asterisk)) | Test B rating (% disease control) (Botrytis cinerea; 50 ppm (asterisk)) |
| --- | --- | --- | --- | --- | --- | --- | --- | --- | --- | --- |
| CC(C)(C)C(O)(Cn1cncn1)C1=NOC(COc2ncc(Cl)cn2)C1 (single isomer, unassigned) [Compound 100] | 92% | 79% | 0% | 77% | 0% |  |  |  |  |  |
| CC(C)(C)C(O)(Cn1cncn1)C1=NOC(CO[Si](C)(C)C(C)(C)C)C1 (single isomer, unassigned) [Compound 9] | 64% | 0% | 0% | 0% | 0% |  |  |  |  |  |
| CC(C)(C)C(O)(Cn1cncn1)C1=NOC(Cn2cc(Br)cn2)C1 (single isomer, unassigned) [Compound 42] | 0% | 9% | 0% | 42% | 0% |  |  |  |  |  |
| OC(Cn1cncn1)(C1=NOC(c2ccc(-n3ccc(C(F)(F)F)n3)cc2)C1)c1ccc(Cl)cc1 (single isomer, unassigned) [Compound 148] | 100% | 100% | 92% | 59% | 0% |  |  |  |  |  |
| CC(C)(C)C(O)(Cn1cncn1)C1=NOC(COc2ccc(OCc3ccccc3)cc2)C1 (single isomer, unassigned) [Compound 72] | 56% | 0% | 0% | 0% | 19% |  |  |  |  |  |
| OC(Cn1cncn1)(C1=NOC(COc2ccc(Cl)cn2)C1)c1ccc(Cl)cc1 (single isomer, unassigned) [Compound 165] | 100% | 99% | 5% | 72% | 0% |  |  |  |  |  |
| OC(Cn1cncn1)(C1=NOC(c2ccc(Cl)cc2)C1)c1cccc(Oc2ccccc2)c1 (single isomer, unassigned) [Compound 109] | 93% | 100% | 66% | 59% | 0% |  |  |  |  |  |
| CC(C)(C)C(O)(Cn1cncn1)C1=NOC(COc2ccc(C(F)(F)F)cc2)C1 (single isomer, unassigned) [Compound 88] | 99% | 100% | 76% | 99% | 0% |  |  |  |  |  |
| OC(Cc1ccccc1)(Cn1cncn1)C1=NOC(c2ccc(Cl)cc2)C1 (single isomer, unassigned) [Compound 121] |  |  |  |  |  | 100% | 100% | 62% | 100% | 100% |
| OC(Cn1cncn1)(C1=NOC(Cn2cc(Br)cn2)C1)c1ccc(Cl)cc1 (single isomer, unassigned) [Compound 38] | 72% | 55% | 1% | 0% | 0% |  |  |  |  |  |
| CCC(C)(C)C(O)(Cn1cncn1)C1=NOC(COc2ccc(Cl)cc2)C1 (single isomer, unassigned) [Compound 193] | 97% | 99% | 22% | 93% | 9% |  |  |  |  |  |
| OC(Cn1cncn1)(C1=NOC(Cn2cc(Br)cn2)C1)c1ccc(Cl)cc1 (single isomer, unassigned) [Compound 37] | 99% | 94% | 0% | 0% | 0% |  |  |  |  |  |
| OC(Cn1cncn1)(C1=NOC(c2ccc(Cl)cc2)C1)c1ccc(F)cc1 (single isomer, unassigned) [Compound 161] | 94% | 28% | 0% | 0% | 0% |  |  |  |  |  |
| CC(C)(C)C(O)(Cn1cncn1)C1=NOC(COc2ccc(-n3cc(Cl)cn3)cc2)C1 (stereo not drawn) [Compound 31] | 100% | 0% | 0% | 0% | 0% |  |  |  |  |  |
| OC(Cn1cncn1)(C1=NOC(c2ccc(Br)cc2)C1)c1ccc(Cl)cc1 (single isomer, unassigned) [Compound 179] | 91% | 100% | 0% | 0% | 0% |  |  |  |  |  |
| OC(Cn1cncn1)(C1=NOC(COc2ccc(Cl)nc2)C1)c1ccc(Cl)cc1 (single isomer, unassigned) [Compound 102] | 69% | 18% | 0% | 0% | 0% |  |  |  |  |  |
| OC(Cn1cncn1)(C1=NOC(COc2ccc3c(c2)OCO3)C1)c1ccc(Cl)cc1 (single isomer, unassigned) [Compound 44] | 64% | 0% | 2% | 28% | 0% |  |  |  |  |  |
| OC(Cn1cncn1)(C1=NOC(Cc2ccc(C(F)(F)F)cc2)C1)c1ccc(Cl)cc1 (single isomer, unassigned) [Compound 203] | 99% | 100% | 16% | 55% | 0% |  |  |  |  |  |
